In PubChem BioAssay (NCI):
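How tested: cells in 96-well plates exposed to compound for 48 hours at five concentrations. TGI: concentration producing complete growth inhibition.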

Key:
Experiment in all cases: growth of human tumour cells (NCI), 48 h
[1] = test system: 786-0 renal
[2] = test system: A498 renal
[3] = test system: A549 NSCLC
[4] = test system: ACHN renal
[5] = test system: BT-549 breast
[6] = test system: CCRF-CEM leukemia
[7] = test system: COLO 205 colon
[8] = test system: DU-145 prostate
[9] = test system: EKVX NSCLC
[10] = test system: HCC-2998 colon
[11] = test system: HCT-116 colon
[12] = test system: HCT-15 colon
[13] = test system: HL-60(TB) leukemia
[14] = test system: HOP-62 NSCLC
[15] = test system: HOP-92 NSCLC
[16] = test system: HS 578T breast
[17] = test system: HT29 colon
[18] = test system: IGROV1 ovarian
[19] = test system: K-562 leukemia
[20] = test system: KM12 colon
[21] = test system: LOX IMVI melanoma
[22] = test system: M14 melanoma
[23] = test system: MALME-3M melanoma
[24] = test system: MCF7 breast
[25] = test system: MDA-MB-231 breast
[26] = test system: MDA-MB-435
[27] = test system: MDA-N
[28] = test system: MOLT-4 leukemia
[29] = test system: NCI-H226 lung
[30] = test system: NCI-H23 lung
[31] = test system: NCI-H460 lung
[32] = test system: NCI-H522 lung
[33] = test system: NCI/ADR-RES ovarian
[34] = test system: OVCAR-4 ovarian
[35] = test system: OVCAR-5 ovarian
[36] = test system: OVCAR-8 ovarian
[37] = test system: PC-3 prostate
[38] = test system: RPMI-8226 leukemia
[39] = test system: RXF 393 renal
[40] = test system: SF-268 CNS
[41] = test system: SF-295 CNS
[42] = test system: SF-539 CNS
[43] = test system: SK-MEL-2 melanoma
[44] = test system: SK-MEL-28 melanoma
[45] = test system: SK-MEL-5 melanoma
[46] = test system: SK-OV-3 ovarian
[47] = test system: SN12C renal
[48] = test system: SNB-19 CNS
[49] = test system: SNB-75 CNS
[50] = test system: SR leukemia
[51] = test system: SW-620 colon
[52] = test system: T-47D breast
[53] = test system: TK-10 renal
[54] = test system: U251 CNS
[55] = test system: UACC-257 melanoma
[56] = test system: UACC-62 melanoma
[57] = test system: CAKI-1 renal
[58] = test system: OVCAR-3 ovarian
[59] = test system: UO-31 renal

In the case of `CC(=O)O[C@H]1[C@H](OC(C)=O)[C@@H](CN=[N+]=[N-])OCO[C@@H]1CN=[N+]=[N-]`, the TGI [1] is reported as > 100 µM, the TGI [2] is reported as > 100 µM and the TGI [3] is reported as > 100 µM. For the same compound, the TGI [4] was > 100 µM, the TGI [5] was > 100 µM and the TGI [6] was > 100 µM. For the same compound, the TGI [7] was > 100 µM, the TGI [8] was > 100 µM and the TGI [9] was > 100 µM. For the same compound, the TGI [10] was > 100 µM, the TGI [11] was > 100 µM and the TGI [12] was > 100 µM. The TGI [13] was > 100000 nM, the TGI [14] was > 100 µM and the TGI [15] was > 100 µM. The TGI [16] was > 100 µM, the TGI [17] was > 100 µM and the TGI [18] was > 100 µM. The TGI [19] was > 100 µM, the TGI [20] was > 100 µM and the TGI [21] was > 100 µM. For the same compound, the TGI [22] was > 100 µM, the TGI [23] was > 100 µM and the TGI [24] was > 100 µM. The TGI [25] was > 100 µM, the TGI [26] was > 100 µM and the TGI [27] was > 100 µM. For the same compound, the TGI [28] was > 100 µM, the TGI [29] was > 100 µM and the TGI [30] was > 100 µM. For the same compound, the TGI [31] was > 100 µM, the TGI [32] was > 100 µM and the TGI [33] was > 100 µM. The TGI [34] was > 100 µM, the TGI [35] was > 100 µM and the TGI [36] was > 100 µM. For the same compound, the TGI [37] was > 100 µM, the TGI [38] was > 100 µM and the TGI [39] was > 100 µM. The TGI [40] was > 100 µM, the TGI [41] was > 100 µM and the TGI [42] was > 100 µM. For the same compound, the TGI [43] was > 100 µM, the TGI [44] was > 100 µM and the TGI [45] was > 100 µM. For the same compound, the TGI [46] was > 100 µM, the TGI [47] was > 100 µM and the TGI [48] was > 100 µM. The TGI [49] was > 100 µM, the TGI [50] was > 100 µM and the TGI [51] was > 100 µM. The TGI [52] was > 100 µM, the TGI [53] was > 100 µM and the TGI [54] was > 100 µM. For the same compound, the TGI [55] was > 100 µM and the TGI [56] was > 100 µM.

`O=C1c2ccccc2C(=O)c2c1oc(=O)c1ccccc21` was tested, and the TGI [1] was 14 µM, the TGI [2] was > 25 µM and the TGI [3] was > 25 µM. For the same compound, the TGI [4] was 11.1 µM, the TGI [5] was 9.2 µM and the TGI [57] was 15.5 µM. The TGI [6] was 16 µM, the TGI [7] was 24.7 µM and the TGI [8] was 14 µM. The TGI [9] was 14.3 µM, the TGI [10] was 6.96 µM and the TGI [11] was 4.27 µM. It also gave a TGI [12] of 7.5 µM, a TGI [13] of 1710 nM and a TGI [14] of 24.6 µM. It also gave a TGI [15] of 11.9 µM, a TGI [16] of 23.2 µM and a TGI [17] of 13 µM. It also gave a TGI [18] of 10.4 µM, a TGI [19] of 17.9 µM and a TGI [20] of 12.8 µM. For the same compound, the TGI [21] was 9.9 µM, the TGI [22] was 16.1 µM and the TGI [23] was 5.79 µM. For the same compound, the TGI [24] was 13.6 µM, the TGI [25] was 13.8 µM and the TGI [26] was 3.61 µM. The TGI [27] was 5.7 µM, the TGI [28] was 12.5 µM and the TGI [29] was 21.2 µM. The TGI [30] was 10.6 µM, the TGI [31] was 10.9 µM and the TGI [32] was 9.73 µM. It also gave a TGI [33] of 10.2 µM, a TGI [58] of 3.61 µM and a TGI [34] of 3.56 µM. For the same compound, the TGI [35] was 14.4 µM, the TGI [36] was 15.1 µM and the TGI [37] was 19.2 µM. The TGI [38] was 19.2 µM, the TGI [39] was 9.62 µM and the TGI [40] was 19.7 µM. The TGI [41] was 7.41 µM, the TGI [42] was > 25 µM and the TGI [43] was 10.1 µM. The TGI [44] was 17 µM, the TGI [45] was 4.51 µM and the TGI [46] was > 25 µM. The TGI [47] was 7.91 µM, the TGI [48] was > 25 µM and the TGI [49] was 12.3 µM. For the same compound, the TGI [50] was 21.3 µM, the TGI [51] was > 25 µM and the TGI [52] was 13.9 µM. For the same compound, the TGI [53] was 18.9 µM, the TGI [54] was 12.2 µM and the TGI [55] was 6.75 µM. For the same compound, the TGI [56] was 8.36 µM and the TGI [59] was 11.4 µM.
